According to US8926966B1 (Regents of the University of California, priority 1990, dated 2015):

Legend:
[1] = system: IDDM associated autoantibodies in sera; experiment: ELISA of sera on plate-bound human GAD65 peptides; format: binding; conditions: for number of IDDM (at risk, pre-IDDM, at onset) patients positive (X) for the peptide (unlabelled sum line): IDDM sera of Table 11
In short: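 Blinded, coded sera (1/300) bound 1 h at 37 °C to wells coated overnight at 4 °C with peptides (20 ug/ml, pH 9.6), BSA-blocked. Detection with HRP-goat anti-human IgG (1/600), read at 410 nm; positive when sample/negative-control OD410 ≥3.0.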

[2] = system: NOD mice; experiment: Insulitis score after tolerization of NOD mice; format: in vivo, mouse; conditions: examined at 12 weeks
[3] = system: spleen cells of NOD mice; experiment: Spleen cell proliferation (recall response to antigens) after tolerization of NOD mice; format: cell-based, mouse; conditions: tested at 12 weeks; for Spleen Cell Proliferation (SI ± SEM) GAD: recall antigen GAD; for Spleen Cell Proliferation (SI ± SEM) GAD Peptides #17: recall antigen GAD peptide #17; for Spleen Cell Proliferation (SI ± SEM) GAD Peptides #34: recall antigen GAD peptide #34; for Spleen Cell Proliferation (SI ± SEM) GAD Peptides #35: recall antigen GAD peptide #35; for Spleen Cell Proliferation (SI ± SEM) hsp Peptide: recall antigen hsp peptide; for Spleen Cell Proliferation (SI ± SEM) β-Gal: recall antigen β-Gal
Protocol: Incorporation of label was measured by liquid scintillation counting.

[4] = system: spleen cells of NOD mice; experiment: Proliferative responses of NOD spleen cells to GAD peptides; format: cell-based, mouse; conditions: peptide 7 μM, 5-day culture
Protocol: The fine specificity of the anti-GAD T-cell response was mapped using a set of 38 peptides (numbered successively from the N-terminus) that were 20-23 amino acids (aa) long and span the entire GAD65 (Bu, et al., Proc. Natl. Acad. Sci., 89:2115-2119, 1992) sequence with 5aa overlaps (FIG. 10).
Peptides were present in cultures at 7 μM and the label was added during the last 16 hours of a 5-day culture. The peptides were synthesized using standard Fmoc chemistry and purified by reverse phase HPLC (Advanced Chemtech). The sequence of stimulatory peptides are shown below in Table 9.

[5] = system: IDDM autoantibodies in sera of human patients; experiment: Autoantibody reactivity with ^35S labeled GAD65 segments (immunoprecipitation, SDS-PAGE); format: binding; conditions: IDDM patient sera of Table 10
Text: Portions of human GAD65 cDNA were amplified by the polymerase chain reaction (PCR; Saiki, et al., Science, 239:487, 1988) to produce DNA segments encoding three polypeptide segments: amino acid residues 1-224 (segment A); 224-398 (segment B); and 398-585 (segment C). Each construct also contained a T7 promoter, a consensus sequence for the initiation of translation and an initiating methionine codon (Korak, M., J. Cell Biol., 108:229, 1989). Each PCR product was then trascribed in vitro with T7 RNA polymerase and translated in vitro in a rabbit reticulocyte cell-free system in the presence of ^35S-methionine, using conditions recommended by the supplier (Amersham Corp., Arlington Heights, Ill.). Each test serum (30 μl) was incubated with the resulting ^35S labeled-polypeptides. The bound peptides were isolated with PAS and analyzed by SDS-PAGE in 12% polyaacrylamide and autoradiography.

[6] = system: NOD mice; experiment: GAD immunization of 8 week old NOD mice, IDDM onset; format: in vivo, mouse; conditions: 25 ug i.p. in IFA at 8 weeks, again every 6 weeks
Text: Breeder mice were purchased from Taconic Farms and housed under specific pathogen-free conditions. Only female NOD mice were used in this study. […] Insulitis is generally observed beginning at 4 weeks of age. […] The incidence of IDDM in female mice is 70-90% by one year of age.
Urine glucose levels were monitored twice weekly. After observing above normal glucose in urea, blood glucose levels were monitored twice weekly.

[7] = system: autoantibodies to GAD in patient sera; experiment: Immunoprecipitation of ^35S-GAD65 / ^35S-GAD67 by sera drawn prior to IDDM onset; format: binding, human; parameters: key to band intensity of immunoprecipitated ^35S-GAD: 1 = lowest; 2 = medium; 3 = highest band intensities
Protocol: Islet cells were extracted as previously described by Atkinson, et al. (Lancet, 335:1357-1360, 1990) with the following modifications. […] The protein A Sepharose CL-4B was then boiled in Laemmli sample buffer (Laemmli, Nature, 227:680-685, 1970), and the samples were subjected to SDS-PAGE and fluororadiography (Kodak, X-omat AR5) using Enhance (New England Nuclear). Alternatively, the autoradiographs were analyzed by a BETAGEN (Boston, Mass.) analyzer. Both 64KA positive and negative sera were used in each assay, to serve as interassay controls. All fluororadiographs were analyzed and rated as positive or negative after comparison with the known interassay controls. […] A similar rating procedure was employed for the intensity of bands corresponding to immunoprecipitated ^35S-GAD65 and ^35S-GAD67.
Rat GAD65 and GAD67 cDNAs were subcloned into a bacterial expression system as previously described. Labeling of ^35S-GADs was completed by pulsing IPTG induced bacterium (growing in Minimal Media) for 15 minutes with TRAN ^35S-label (ICN). Cultures were then spun down and resuspended and sonicated in 1 ml of homogenizing buffer (1 mM phenylmethylsulfonyl fluoride (PMSF), 1 mM 2-aminoethylisothiouronium Bromide (AET) and 60 mM potassium phosphate, pH 7.1). After sonication, cell debris was removed by centrifugation and protein concentration was measured (Bradford, Anal. Biochem., 72:248, […]) in the supernatant (supernatant was stored in aliquots at −70° C.).

[8] = Table 8B: neonatal i.p. with IFA
[9] = Table 8C: i.v. at three weeks of age

EEILMHCQTTLKYAIKTGHP [Peptide 11]
immunoreactivity of serum with GAD65 peptide ([1]; IDDM At Risk serum 825, 1/300 dilution): X (X = positive for immunoreactivity as defined by 00/background^3.0) | immunoreactivity of serum with GAD65 peptide ([1]; IDDM At Risk serum L.I., 1/300 dilution): b (b = borderline response (00/background ?2.5-2.9).) | number of IDDM (at risk, pre-IDDM, at onset) patients positive (X) for the peptide (unlabelled sum line) [1]: 2 | immunoreactivity of serum with GAD65 peptide ([1]; Pre-IDDM serum B.Y. (1), 1/300 dilution): X (X = positive for immunoreactivity as defined by 00/background^3.0) | immunoreactivity of serum with GAD65 peptide ([1]; Pre-IDDM serum J.B. (1), 1/300 dilution): b (b = borderline response (00/background ?2.5-2.9).) | immunoreactivity of serum with GAD65 peptide ([1]; Pre-IDDM serum J.B. (2), 1/300 dilution): b (b = borderline response (00/background ?2.5-2.9).) | immunoreactivity of serum with GAD65 peptide ([1]; Pre-IDDM serum R.S. (1), 1/300 dilution): b (b = borderline response (00/background ?2.5-2.9).) | immunoreactivity of serum with GAD65 peptide ([1]; Pre-IDDM serum R.S. (2), 1/300 dilution): b (b = borderline response (00/background ?2.5-2.9).) | Insultis Score ([2]; Table 8B: neonatal female NOD mice, i.p. with IFA, scale 0-4): ≈2.5 | Spleen Cell Proliferation (SI ± SEM) GAD [3, 8]: 21.1 ± 2.2 SI | Spleen Cell Proliferation (SI ± SEM) GAD Peptides #17 [3, 8]: 13.7 ± 1.5 SI | Spleen Cell Proliferation (SI ± SEM) GAD Peptides #34 [3, 8]: 11.4 ± 1.5 SI | Spleen Cell Proliferation (SI ± SEM) GAD Peptides #35 [3, 8]: 11.3 ± 0.7 SI | Spleen Cell Proliferation (SI ± SEM) hsp Peptide [3, 8]: 13.3 ± 0.9 SI | Spleen Cell Proliferation (SI ± SEM) β-Gal [3, 8]: 1.0 ± 0.1 SI | Spleen Cell Proliferation (SI ± SEM) GAD [3, 9]: 12.1 ± 3.5 SI | Spleen Cell Proliferation (SI ± SEM) GAD Peptides #17 [3, 9]: 6.9 ± 0.4 SI | Spleen Cell Proliferation (SI ± SEM) GAD Peptides #34 [3, 9]: 6.4 ± 1.0 SI | Spleen Cell Proliferation (SI ± SEM) GAD Peptides #35 [3, 9]: 6.8 ± 0.3 SI | Spleen Cell Proliferation (SI ± SEM) hsp Peptide [3, 9]: 8.7 ± 0.9 SI | Spleen Cell Proliferation (SI ± SEM) β-Gal [3, 9]: 1.4 ± 0.4 SI

IPPSLRTLEDNEERMSRLSK [Peptide 34]
immunoreactivity of serum with GAD65 peptide ([1]; IDDM At Onset serum 048, 1/300 dilution): X (X = positive for immunoreactivity as defined by 00/background^3.0) | immunoreactivity of serum with GAD65 peptide ([1]; IDDM At Onset serum 291, 1/300 dilution): b (b = borderline response (00/background ?2.5-2.9).) | number of IDDM (at risk, pre-IDDM, at onset) patients positive (X) for the peptide (unlabelled sum line) [1]: 1 | age of NOD mice at first regularly detectable proliferative response [4]: 4 weeks

NMYAMMIARFKMFPEVKEKG [Peptide 17]
age of NOD mice at first regularly detectable proliferative response [4]: 5 weeks

SRLSKVAPVIKARMMEYGTT [Peptide 35]
number of IDDM (at risk, pre-IDDM, at onset) patients positive (X) for the peptide (unlabelled sum line) [1]: 1 | immunoreactivity of serum with GAD65 peptide ([1]; Pre-IDDM serum 723, 1/300 dilution): X (X = positive for immunoreactivity as defined by 00/background^3.0) | age of NOD mice at first regularly detectable proliferative response [4]: 4 weeks

Segment B: human GAD65 amino acid residues 224-398, in vitro translated, ^35S labeled
patients with antibodies reactive with the segment [5]: 41%

β-Gal.: E. coli β-galactosidase, control antigen purified from recombinant bacteria [reference compound]
Insultis Score ([2]; Table 8A: female NOD mice, i.v. at 3 weeks of age, 50 μg (hsp-p 0.1 μg) in PBS, scale 0-4, mean ± SE): 2.6 ± 0.6 | Spleen Cell Proliferation (SI ± SEM) CPH ([3]; Table 8A: i.v. at 3 weeks, recall antigen CPH): 11.5 ± 0.9 SI | Spleen Cell Proliferation (SI ± SEM) GAD ([3]; Table 8A: i.v. at 3 weeks): 15.4 ± 1.8 SI | Spleen Cell Proliferation (SI ± SEM) GAD Peptides #17 ([3]; Table 8A: i.v. at 3 weeks): 5.1 ± 0.6 SI | Spleen Cell Proliferation (SI ± SEM) GAD Peptides #34 ([3]; Table 8A: i.v. at 3 weeks): 5.1 ± 0.6 SI | Spleen Cell Proliferation (SI ± SEM) GAD Peptides #35 ([3]; Table 8A: i.v. at 3 weeks): 4.0 ± 0.2 SI | Spleen Cell Proliferation (SI ± SEM) hsp Peptide ([3]; Table 8A: i.v. at 3 weeks): 6.6 ± 0.5 SI | Spleen Cell Proliferation (SI ± SEM) β-Gal ([3]; Table 8A: i.v. at 3 weeks): 1.1 ± 0.1 SI | mice that developed IDDM by 27 weeks in age [6]: 6/10 | mice remaining disease free at 52 weeks of age ([6]; 10 mice per group): 2

B1: GAD67: rat GAD67 expressed in bacteria, ^35S-labeled, in bacterial lysate (protein)
chain: MASSTPSPATSSNAGADPNTTNLRPTTYDTWCGVAHGCTRKLGLKICGFLQRTNSLEEKSRLVSAFRERQASKNLLSCENSDPGARFRRTETDFSNLFAQDLLPAKNGEEQTVQFLLEVVDILLNYVRKTFDRSTKVLDFHHPHQLLEGMEGFNLELSDHPESLEQILVDCRDTLKYGVRTGHPRFFNQLSTGLDIIGLAGEWLTSTANTNMFTYEIAPVFVLMEQITLKKMREIIGWSNKDGDGIFSPGGAISNMYSIMAARYKYFPEVKTKGMAAVPKLVLFTSEHSHYSIKKAGAALGFGTDNVILIKCNERGKIIPADLEAKILDAKQKGFVPLYVNATAGTTVYGAFDPIQEIADICEKYNLWLHVDAAWGGGLLMSRKHRHKLSGIERANSVTWNPHKMMGVLLQCSAILVKEKGILQGCNQMCAGYLFQPDKQYDVSYDTGDKAIQCGRHVDIFKFWLMWKAKGTVGFENQINKCLELAEYLYAKIKNREEFEMVFNGEPEHTNVCFWYIPQSLRGVPDSPERREKLHRVAPKIKALMMESGTTMVGYQPQGDKANFFRMVISNPAATQSDIDFLIEEIERLGQDL
band intensity of immunoprecipitated ^35S-GAD ([7]; serum of patient eight, drawn 8 months before IDDM onset): 0 | band intensity of immunoprecipitated ^35S-GAD ([7]; serum of patient eleven, drawn 10 months before IDDM onset): 1 | band intensity of immunoprecipitated ^35S-GAD ([7]; serum of patient five, drawn 34 months before IDDM onset): 0 | band intensity of immunoprecipitated ^35S-GAD ([7]; serum of patient nine, drawn 42 months before IDDM onset): 0 | band intensity of immunoprecipitated ^35S-GAD ([7]; serum of patient one, drawn 9 months before IDDM onset): 1 | band intensity of immunoprecipitated ^35S-GAD ([7]; serum of patient seven, drawn 3 months before IDDM onset): 1 | band intensity of immunoprecipitated ^35S-GAD ([7]; serum of patient six, drawn 11 months before IDDM onset): 1 | band intensity of immunoprecipitated ^35S-GAD ([7]; serum of patient ten, drawn 25 months before IDDM onset): 1 | band intensity of immunoprecipitated ^35S-GAD ([7]; serum of patient three, drawn 14 months before IDDM onset): 0 | band intensity of immunoprecipitated ^35S-GAD ([7]; serum of patient twelve, drawn 4 months before IDDM onset): 0 | band intensity of immunoprecipitated ^35S-GAD ([7]; serum of patient two, drawn 6 months before IDDM onset): 2 | band intensity of immunoprecipitated ^35S-GAD ([7]; serum of patient, drawn 66 months before IDDM onset): 0
